Tests used:
[1] = biological target: T1, platelet αIIbβ3-integrin with vitronectin (Homo sapiens, UniProt P04004); assay: Binding of vitronectin to αIIbβ3-integrin; details: vitronectin 2 μg/ml, immobilized αIIbβ3-integrin 5 μg/ml, 10 μM ZnCl2 (FIG. 3)
T1 sequence (P04004 20-478): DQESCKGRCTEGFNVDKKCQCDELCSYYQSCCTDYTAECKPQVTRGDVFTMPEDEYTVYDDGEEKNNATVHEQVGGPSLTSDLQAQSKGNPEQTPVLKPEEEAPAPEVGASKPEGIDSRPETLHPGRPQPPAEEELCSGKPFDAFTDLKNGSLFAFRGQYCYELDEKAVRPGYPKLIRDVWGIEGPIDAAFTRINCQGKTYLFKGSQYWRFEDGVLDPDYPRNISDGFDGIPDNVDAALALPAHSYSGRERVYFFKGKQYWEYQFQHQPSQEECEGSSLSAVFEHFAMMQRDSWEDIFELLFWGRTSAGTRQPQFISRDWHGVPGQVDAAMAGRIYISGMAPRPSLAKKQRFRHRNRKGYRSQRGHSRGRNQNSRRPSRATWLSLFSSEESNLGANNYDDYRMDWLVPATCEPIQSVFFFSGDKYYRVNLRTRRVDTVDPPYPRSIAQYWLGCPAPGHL
Method: Microtiter plates were coated with 5 μg/ml αIIbβ3-integrin in Tris-buffered saline, pH 7.4, containing 1 mM CaCl2, 1 mM MgCl2 overnight at 4° C. and then blocked with 3% (w/v) bovine serum albumin. Binding of multimeric vitronectin (2 μg/ml) was performed in a final volume of 50 μl Tris-buffered saline containing 0.1% Tween-20, 0.3% (w/v) bovine serum albumin, 1 mM CaCl2 and 1 mM MgCl2 for 2 h at 22° C. in the absence or presence of 10 μM ZnCl2 and different kininogen forms. After the incubation period, monoclonal anti-vitronectin antibody VN7 at a concentration of 125 ng/ml was added, followed by addition of 1:1000 diluted peroxidase-conjugated goat anti-mouse immunoglobulins, respectively. Binding was quantitated as described above.
FIG. 3 The binding of vitronectin (2 μg/ml) to immobilized αIIbβ3-integrin (5 μg/ml) in the absence or presence of increasing concentrations of PAI-1 (filled squares), HKa (filled circles) or GST-domain 5 (open circles) in a buffer containing 10 μM ZnCl2 was carried out. Specific binding is presented as absorbance at 405 nm.

PAI-1 = assay: Urokinase-mediated clot lysis in the presence of PAI-1; type: biochemical; details: not shown
platelets = assay: Platelet adhesion onto vitronectin-coated plates; type: cell-based; details: competitors each 250 nM (FIG. 4)
Method: Multiwell plates were coated with 5 μg/ml multimeric vitronectin (dissolved in bicarbonate buffer, pH 9.6) and blocked with 3% (wt/vol) bovine serum albumin for 16 h at 4° C. Platelets stained with calcein acetoxymethyl ester (calcein-AM, 2.5 μM) (15 min at 37° C. in the dark) at a density of 5×10^6 cells suspended in 50 μl HEPES-Tyrode buffer containing 4 mM MgCl2 were added together with the respective competitors and incubated for 30 min at 37° C. After three washes with phosphate buffered saline, bound platelets were lysed with 100 μl of lysis buffer (150 mM NaCl, 10 mM Tris-CH1, pH 7.5, 5 mM EDTA, 1% (wt/vol) NP-40, 1 mM phenyl-methylsulfonyl fluoride, 20 μg/ml soybean trypsin inhibitor) and quantified in a fluorescent plate reader (excitation filter 492 nm, emission filter 535 nm).
FIG. 4. The adhesion of platelets to vitronectin in the absence (−) or presence of HK, HKa, GST-domain 5(D5), or the peptides HK483 and HK486 (each 250 nM) was carried out. Cell adhesion is presented as % of control.

platelet-rich plasma = assay: Aggregation of platelet-rich plasma; type: cell-based; details: Adenosin-diphosphate (5 μM)-induced; competitors each 1000 nM (FIG. 5)
Method: Platelet-rich plasma from fresh whole blood in sodium citrate was prepared by centrifugation of anticoagulated whole blood at 150 g for 20 min. After incubation of 0.45 ml of platelet rich plasma with different kininogen forms as indicated in the figure legends, and addition of 5 μl of […] at a final concentration of 5 μM, platelet aggregation was induced. Aggregation was quantitated by following the change in light transmission in a standardized aggregometer.
FIG. 5 Adenosin-diphosphate (5 μM)-induced aggregation of platelet-rich plasma was performed in the absence (−) or presence of GST-domain 5 (D5), or the peptides HK483 and HK486 (each 1000 nM). Platelet aggregation is presented as % of control.

[2] = biological target: T2, binding of PAI-1 to vitronectin in PAI-1-depleted extracellular matrix of endothelial cells (Homo sapiens, UniProt P04004); assay: Binding of PAI-1 to endothelial cell matrix; details: 2 μg/ml PAI-1; competitors each 500 nM; 10 μM ZnCl2 (FIG. 1)
T2 construct: The extracellular matrix of human umbilical vein endothelial cells was prepared according to standard procedures; endogenous in cells; host or cells: extracellular matrix of human umbilical vein endothelial cells, glycine-treated
T2 sequence (P04004 20-478): T1 sequence (P04004 20-478)
Method: The extracellular matrix of human umbilical vein endothelial cells was prepared according to standard procedures. PAI-1-depleted extracellular matrix was obtained by subsequent incubation with glycine (0.1 M, pH 2.3) for 2 h at 25° C. Wells were washed and blocked with phosphate buffered saline containing 3% (wt/vol) bovine serum albumin before proceeding with binding assays. Binding of PAI-1 (2 μg/ml) to the extracellular matrix was performed in a final volume of 50 μl Tris-buffered saline containing 0.1% Tween-20, 0.3% (wt/vol) bovine serum albumin for 2 h at 22° C. in the absence or presence of […] and different kininogen forms. Following the incubation period and a washing step, bound PAI-1 was quantitated by anti-human PAI-1 monoclonal antibody 12A4, followed by addition of 1:1000 diluted peroxidase-conjugated goat anti-mouse immunoglobulins. The conversion of the substrate 2,2,-azino-di(3-ethyl) benz-thiazoline sulphate was monitored at 405 nm in a Thermomax microtiter plate reader. […]
FIG. 1 The binding of 2 μg/ml PAI-1 to PAI-1-depleted (2 h glycine preincubation) extracellular matrix of cultured endothelial cells was tested in the absence (−)or presence of HK, HKa, GST-domain 5 (D5), the peptides HK483 and HK486 (each 500 nM) in a buffer containing 10 μM ZnCl2. Specific binding of PAI-1 is presented as absorbance at 405 nm.

“His-483-Gly-497 (HGHGKHKNKGKKNGK; UniProt P01042 501-515, looked up, fragment) [HK483, peptide derived from the carboxy-terminus of the domain 5 of HK]” was tested, and the “interaction of platelet αIIbβ3-integrin with vitronectin” value [1] was “block”, the “urokinase-mediated clot lysis, which is inhibited in the presence of PAI-1” value (PAI-1) was “enhance” and the “αIIbβ3-integrin-mediated platelet adhesion to vitronectin” value (platelets) was “block”. For the same substance, the “aggregation of platelet-rich plasma” value (platelet-rich plasma) was “inhibit” and the “binding of PAI-1 to vitronectin in PAI-1-depleted (glycine-treated) extracellular matrix of endothelial cells” value [2] was “inhibited”.

— US20050058636A1, “Medicament against thrombotic diseases” (priority 2002, published 2005)
